Test results as given in patent US4503043A, “Substituted acyl derivatives of octahydro-1H-isoindole-1-carboxylic acids” (Warner-Lambert Company, priority 1982, dated 1985).
Structures can show the parent of a compound that is named as a salt.

Target: T1, guinea pig serum ACE (angiotensin converting enzyme) (Cavia porcellus, UniProt H0UWL7)
T1 construct: ACE from guinea pig serum; from tissue; host or cells: guinea pig serum
T1 sequence (H0UWL7 33-1302): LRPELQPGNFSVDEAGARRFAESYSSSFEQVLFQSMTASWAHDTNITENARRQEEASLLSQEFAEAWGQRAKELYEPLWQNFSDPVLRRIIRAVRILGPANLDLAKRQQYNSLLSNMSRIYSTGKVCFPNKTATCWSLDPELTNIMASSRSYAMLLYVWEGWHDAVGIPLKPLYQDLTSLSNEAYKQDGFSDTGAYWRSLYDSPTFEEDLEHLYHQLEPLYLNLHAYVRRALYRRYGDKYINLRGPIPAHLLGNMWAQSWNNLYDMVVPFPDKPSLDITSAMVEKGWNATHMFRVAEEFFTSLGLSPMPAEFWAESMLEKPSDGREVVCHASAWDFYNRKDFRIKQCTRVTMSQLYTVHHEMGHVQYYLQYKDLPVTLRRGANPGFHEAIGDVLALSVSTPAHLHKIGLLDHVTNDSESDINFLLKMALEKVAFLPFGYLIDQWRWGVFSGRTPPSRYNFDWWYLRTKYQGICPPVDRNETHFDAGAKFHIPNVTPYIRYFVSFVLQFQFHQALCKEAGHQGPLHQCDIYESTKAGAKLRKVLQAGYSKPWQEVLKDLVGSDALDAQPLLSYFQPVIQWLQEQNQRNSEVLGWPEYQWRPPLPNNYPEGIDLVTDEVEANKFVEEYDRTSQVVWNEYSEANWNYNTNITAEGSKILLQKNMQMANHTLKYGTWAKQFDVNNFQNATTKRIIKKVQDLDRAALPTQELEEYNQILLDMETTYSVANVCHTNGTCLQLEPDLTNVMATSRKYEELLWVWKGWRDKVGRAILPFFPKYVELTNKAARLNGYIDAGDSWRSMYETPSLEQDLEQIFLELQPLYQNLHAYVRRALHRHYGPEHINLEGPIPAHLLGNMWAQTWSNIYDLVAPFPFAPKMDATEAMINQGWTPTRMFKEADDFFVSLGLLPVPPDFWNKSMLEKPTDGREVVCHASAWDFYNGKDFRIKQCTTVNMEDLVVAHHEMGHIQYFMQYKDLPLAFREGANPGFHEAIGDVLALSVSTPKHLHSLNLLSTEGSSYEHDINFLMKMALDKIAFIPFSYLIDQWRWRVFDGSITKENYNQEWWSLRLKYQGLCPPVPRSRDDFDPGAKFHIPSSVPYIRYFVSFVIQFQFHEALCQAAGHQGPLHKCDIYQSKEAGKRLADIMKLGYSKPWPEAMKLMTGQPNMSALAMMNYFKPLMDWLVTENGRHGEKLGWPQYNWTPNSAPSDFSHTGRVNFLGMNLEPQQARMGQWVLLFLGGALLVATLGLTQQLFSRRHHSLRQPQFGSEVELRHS
Test: In vitro ACE Assay (angiotensin converting enzyme inhibitory activity)
Assay type: biochemical
Conditions: 10 min preincubation, substrate 3H-hippuryl-glycylglycine, 60 min at 37° C.
Procedure: In vitro ACE Assay: Angiotensin converting enzyme (ACE) inhibitory activity is determined by assaying guinea pig serum ACE in the presence and absence of the test compound. ACE from guinea pig serum and the test compounds are preincubated for 10 minutes before the addition of the labelled substrate ^3 H-hippuryl-glycylglycine. After a 60 minute incubation at 37° C. the reaction is stopped by the addition of 0.1N HCl. ACE cleaves the hippuryl-glycyl bond to form the dipeptide glycyl-glycine and ^3 H-hippuric acid. The ^3 H-hippuric acid is then extracted with ethyl acetate and the ACE inhibition of a given sample calculated on the basis of the ^3 H-hippuric acid generated.

Row | SMILES | IC50 [nM]
1 | CC(CS)C(=O)N1C(=O)C2CCCCC2C1C(=O)O (centres unmarked) [Example 8, 2-[3-(Mercapto-2-methyl-1-oxopropyl]octahydro-3-oxo-1H-isoindole-1-carboxylic acid, dicyclohexylamine salt] | 14
2 | CC(NC(CCc1ccccc1)C(=O)O)C(=O)N1CC2CCCCC2C1C(=O)O (centres unmarked) [Example 13, 2-[2-[(1-Carboxy-3-phenylpropyl)amino]-1-oxopropyl]-octahydro-1H-isoindole-1-carboxylic acid] | 2.6
3 | CC(=O)SCCC(=O)N1C(=O)C2CCCCC2C1C(=O)O (centres unmarked) [Example 5, 2-[3-Acetylthio-1-oxopropyl]octahydro-3-oxo-1H-isoindole-1-carboxylic acid, dicyclohexylamine salt] | 660
4 | CC(=O)SCC(C)C(=O)N1C(=O)C2CCCCC2C1C(=O)O (centres unmarked) [Example 7, 2-[3-(Acetylthio)-2-methyl-1-oxopropyl]octahydro-3-oxo-1H-isoindole-1-carboxylic acid, dicyclohexylamine salt] | 280
5 | CC(=O)SCC(C)C(=O)N1CC2CCCCC2C1C(=O)O (centres unmarked) [Example 3, 2-[3-(Acetylthio)-2-methyl-1-oxopropyl]octahydro-1H-isoindole-1-carboxylic acid] | 420
6 | CC(CS)C(=O)N1CC2CCCCC2C1C(=O)O (centres unmarked) [Example 4, 2-[3-Mercapto-2-methyl-1-oxopropyl]octahydro-1H-isoindole-1-carboxylic acid] | 28
7 | CCOC(=O)[C@H](CCc1ccccc1)N[C@@H](C)C(=O)N1C(=O)C2CCCCC2C1C(=O)O (some centres unmarked) [Example 14, 2-[2-[(1-carbethoxy-3-phenylpropyl)amino]-1-oxopropyl]-octahydro-3-oxo-1H-isoindole-1-carboxylic acid, hydrochloride] | 340
8 | O=C(O)C1C2CCCCC2CN1C(=O)CCS (centres unmarked) [Example 2, 2-(3-Mercaptopropanoyl)octahydro-1H-isoindole-1-carboxylic acid, dicyclohexylamine salt] | 24
9 | O=C(O)C1C2CCCCC2C(=O)N1C(=O)CCS (centres unmarked) [Example 6, 2-[3-Mercapto-1-oxopropyl]octahydro-3-oxo-1H-isoindole-1-carboxylic acid, dicyclohexylamine salt] | 13
10 | CCOC(=O)C(CCc1ccccc1)NC(C)C(=O)N1CC2CCCCC2C1C(=O)O (centres unmarked) [Example 12, 2-[2-[(1-Carbethoxy-3-phenylpropyl)amino]-1-oxopropyl]-octahydro-1H-isoindole-1-carboxylic acid, hydrochloride] | 170
11 | CC(=O)SCCC(=O)N1CC2CCCCC2C1C(=O)O (centres unmarked) [Example 1, 2-[3-(Acetylthio)-1-oxopropyl]octahydro-1H-isoindole-1-carboxylic acid] | 1200
